In US20250171438A1 (Agios Pharmaceuticals, Inc., priority 2022, published 2025):

Target: T1, human PAH with the R408W mutation (Homo sapiens, UniProt P00439, R408W)
T1 construct: expressed in transfected cells
T1 sequence (P00439 1-452 R408W): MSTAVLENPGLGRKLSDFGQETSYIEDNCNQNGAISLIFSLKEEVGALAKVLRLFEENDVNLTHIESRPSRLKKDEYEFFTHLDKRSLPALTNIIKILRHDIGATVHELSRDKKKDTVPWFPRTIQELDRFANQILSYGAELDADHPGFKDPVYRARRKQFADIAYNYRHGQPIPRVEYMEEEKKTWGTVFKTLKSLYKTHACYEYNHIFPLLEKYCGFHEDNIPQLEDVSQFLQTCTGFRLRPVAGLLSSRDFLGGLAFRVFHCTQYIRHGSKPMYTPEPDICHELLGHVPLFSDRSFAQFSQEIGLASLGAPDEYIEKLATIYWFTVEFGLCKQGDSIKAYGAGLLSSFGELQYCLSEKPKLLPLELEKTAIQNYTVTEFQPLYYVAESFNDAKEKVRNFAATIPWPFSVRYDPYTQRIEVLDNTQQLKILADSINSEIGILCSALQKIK
Assay: Cell Based Phenylalanine Flux Assay
Details: A375 cells expressing human R408W PAH; 24 hrs compound incubation; 13C-Tyrosine by LC-MS; average where tested multiple times; read-out: AC50
Method: Compounds were resuspended in DMSO, and 2-fold serial dilutions were performed to generate a 10-point dose curve. Compounds were added to plated cells in a total volume of 100 pal, and a final DMSO concentration of 0.5%. Each compound was tested in duplicate. Following compound addition, cells were placed in a 5% CO2, 37° C. tissue culture incubator for 24 hrs. After the incubation period, 20 μM sepiapterin and 800 μM 13C9,15N-Phenylalanine were added. After 4 hours, cell media was removed. An aliquot of 10 μl of cell media was combined with 200 μl of extraction buffer (80% acetonitrile/20% H2O) for each well. Determination of ^13C-Tyrosine concentration was assessed by liquid chromatography mass spectrometry.
Where a compound was tested multiple times, the average value of the tests is reported.

Structure (SMILES) | AC50
O=C(c1ncco1)N1CCc2[nH]cnc2[C@H]1c1nc2cccc(F)c2s1 [Example 1279, (S)-(4-(7-fluorobenzo[d]thiazol-2-yl)-6,7-dihydro-1H-imidazo[4,5-c]pyridin-5(4H)-yl)(oxazol-2-yl)methanone] | 1000 to 5000 nM
O=C(c1oc(-c2ccccn2)nc1C1CC1)N1CCc2[nH]cnc2[C@H]1c1nc2ccccc2[nH]1 [Example 995, (S)-(4-(1H-benzo[d]imidazol-2-yl)-6,7-dihydro-1H-imidazo[4,5-c]pyridin-5(4H)-yl)(4-cyclopropyl-2-(pyridin-2-yl)oxazol-5-yl)methanone] | 500 to 1000 nM
O=C(c1cnn2c(Br)cccc12)N1CCc2[nH]cnc2[C@@H]1c1nc2ccc(F)cc2s1 [Example 1150, (R)-(7-bromopyrazolo[1,5-a]pyridin-3-yl)(4-(6-fluorobenzo[d]thiazol-2-yl)-6,7-dihydro-1H-imidazo[4,5-c]pyridin-5(4H)-yl)methanone] | > 5000 nM
O=C(c1ocnc1C1CC1)N1CCc2[nH]cnc2[C@@H]1c1nc2ccccc2s1 [Example 1328, (R)-(4-(benzo[d]thiazol-2-yl)-6,7-dihydro-1H-imidazo[4,5-c]pyridin-5(4H)-yl)(4-cyclopropyloxazol-5-yl)methanone] | 1000 to 5000 nM
O=C(c1oc(C2(O)CCC2)nc1C(F)(F)F)N1CCCc2[nH]cnc2[C@H]1c1nc2ccccc2s1 [Example 2137, (S)-(4-(benzo[d]thiazol-2-yl)-7,8-dihydroimidazo[4,5-c]azepin-5(1H,4H,6H)-yl)(2-(1-hydroxycyclobutyl)-4-(trifluoromethyl)oxazol-5-yl)methanone] | 1000 to 5000 nM
Cc1nn(C)c(Cl)c1C(=O)N1CCc2[nH]cnc2[C@H]1c1nc2c(F)cccc2s1 [Example 1742] | < 500 nM
O=C(c1nnc(-c2ccccn2)o1)N1CCc2[nH]cnc2[C@@H]1c1nc2c(F)cccc2s1 [Example 1601, (R)-(4-(4-fluorobenzo[d]thiazol-2-yl)-6,7-dihydro-1H-imidazo[4,5-c]pyridin-5(4H)-yl)(5-(pyridin-2-yl)-1,3,4-oxadiazol-2-yl)methanone] | 500 to 1000 nM
CN1CCN(c2nc(C(F)(F)F)c(C(=O)N3CCc4[nH]cnc4[C@@H]3c3nc4c(F)cccc4s3)o2)CC1 [Example 1624, (R)-(4-(4-fluorobenzo[d]thiazol-2-yl)-6,7-dihydro-1H-imidazo[4,5-c]pyridin-5(4H)-yl)(2-(4-methylpiperazin-1-yl)-4-(trifluoromethyl)oxazol-5-yl)methanone] | < 500 nM
CC(F)(F)c1ncc(C(=O)N2CCc3[nH]cnc3[C@H]2c2nc3c(F)cccc3s2)s1 [Example 1513] | < 500 nM
Cc1nc(C(C)(C)C#N)oc1C(=O)N1CCc2[nH]cnc2[C@@H]1c1nc2c(F)cccc2s1 [Example 1997, (R)-2-(5-(4-(4-fluorobenzo[d]thiazol-2-yl)-4,5,6,7-tetrahydro-1H-imidazo[4,5-c]pyridine-5-carbonyl)-4-methyloxazol-2-yl)-2-methylpropanenitrile] | 1000 to 5000 nM
O=C(c1nnc(-c2cnn(C3CCC3)c2)o1)N1CCc2[nH]cnc2[C@H]1c1nc2ccccc2s1 [Example 1828] | < 500 nM
O=C(c1cnn2cc(C3CC3)ccc12)N1CCc2[nH]cnc2[C@@H]1c1nc2ccccc2s1 [Example 1192, (R)-(4-(benzo[d]thiazol-2-yl)-6,7-dihydro-1H-imidazo[4,5-c]pyridin-5(4H)-yl)(6-cyclopropylpyrazolo[1,5-a]pyridin-3-yl)methanone] | 1000 to 5000 nM
O=C(c1nnc(C2CC2)o1)N1CCc2[nH]cnc2[C@H]1c1nc2c(F)cccc2s1 [Example 1443] | < 500 nM

Same assay, conditions: A375 cells expressing human R408W PAH; 24 hrs with compound; 13C-Tyrosine by LC-MS; average where tested multiple times; read-out: AC50

Structure (SMILES) | AC50
Cn1nc(C#N)cc1C(=O)N1CCc2[nH]cnc2C1c1nc2c(F)cccc2s1 (stereo not shown) | > 5000 nM
Cc1nnc(C(=O)N2CC(C)c3[nH]cnc3C2c2nc3ccccc3s2)o1 (stereo not shown) | > 5000 nM
O=C(Cc1cscn1)N1CCc2[nH]cnc2[C@H]1c1nc2ccccc2s1 (single isomer, unassigned) | 1000 to 5000 nM
